Values quoted from earlier work, collected in patent US6855805B2 (priority 1999, dated 2005).

Tested on: neuromuscular block
Details: dose mg/kg: Sux 1.0, Org 9847 1.5, Rocuronium 0.6, Mivacurium 0.2, Vecuronium 0.1, Cisatracurium 0.1

SMILES | Onset Time | Recovery 25% | Recovery 75%
COc1ccc(C[C@@H]2c3cc(OC)c(OC)cc3CC[N@+]2(C)CCC(=O)OCCCCCOC(=O)CC[N@@+]2(C)CCc3cc(OC)c(OC)cc3[C@H]2Cc2ccc(OC)c(OC)c2)cc1OC [Cisatracurium] | 120 to 180 s | 45 min | 60 to 70 min
COc1cc2c(cc1OC)[C@@H](Cc1cc(OC)c(OC)c(OC)c1)[N+](C)(CCCOC(=O)CC/C=C/CCC(=O)OCCC[N+]1(C)CCc3cc(OC)c(OC)cc3[C@H]1Cc1cc(OC)c(OC)c(OC)c1)CC2 (stereo partly drawn) [Mivacurium] | 150 s | 20 min | 27 min
C=CC[N+]1([C@H]2C[C@H]3[C@@H]4CC[C@H]5C[C@H](O)[C@@H](N6CCOCC6)C[C@]5(C)[C@H]4CC[C@]3(C)[C@H]2OC(C)=O)CCCC1 [Rocuronium] | 80 s | 40 min | 60 min
C[N+](C)(C)CCOC(=O)CCC(=O)OCC[N+](C)(C)C [Sux, succinylcholine chloride] | 60 s | 5 to 7 min | 10 min
CC(=O)O[C@H]1C[C@@H]2CC[C@@H]3[C@H](CC[C@@]4(C)[C@H]3C[C@H]([N+]3(C)CCCCC3)[C@@H]4OC(C)=O)[C@@]2(C)C[C@@H]1N1CCCCC1 [Vecuronium] | 120 to 180 s | 40 min | 60 min
